From patent publication US20070154906A1, “Methods to identify therapeutic candidates” (Spirogen Ltd., priority 2005, published 2007)

How the values were obtained:
[1] = tested on: MCF-7 human mammary cells; test: Cellular uptake and nuclear incorporation, confocal microscopy; type: cell-based; settings: for nuclear fluorescence: highest drug concentrations, exposure time 24 hour; for nuclear uptake: 200 μM over 24 hour; for time to cellular uptake / detection: MCF-7 cells
Protocol: Cellular uptake and nuclear incorporation of drug into MCF-7 human mammary cells was visualized using confocal microscopy. Conjugates GWL 77, GWL78, GWL 79, GWL 80 and GWL 81 were prepared in DMSO at 20 mM and diluted in RPMI to the appropriate concentration. Freshly harvested MCF7 cells at 5×10^4 cells/ml were placed in 200 μl of complete RPMI1640 (containing 10% FCS) into the wells of 8-well chambered cover-glasses. Cells were left overnight to adhere at 37° C. […] At 1, 5 and 24 hours after addition of conjugates, the cells were examined using a Nikon TE2000 with UV filter set and viewed under oil immersion with the x63 objective lens.

[2] = tested on: MS2 DNA fragment (MS2F and MS2R); test: DNase I footprinting on MS2 DNA fragment; type: binding; settings: for footprint shape at position H (footnote 1) / footprint shape at position J (footnote 2): MS2 DNA fragment; for footprint shape at position H (footnote 1): site H; for footprint shape at position J (footnote 2): site J
Protocol: The sequence selectivity of the six PBD-pyrrole conjugates (GWL 77, GWL 78, GWL 79, GWL 80, GWL 81 and GWL 82) was evaluated by standard DNA footprinting on a fragment of MS2 as follows, in accordance with the technique described in Martin, Biochemistry (2005) 44:4135-4147.
The vast majority of footprint sites are common features in the binding profiles of all six conjugates, with only a small number of sites being footprinted by a subset of the family. Even more unexpectedly, no site is footprinted by only one molecule (in fact, the fewest number of conjugates that bind at any single site is four). The differential cleavage plot in FIG. 5 provides footprinting profiles at a supramaximal concentration color-coded for each conjugate which illustrates a striking degree of overlap. Although there is no conspicuous change in footprinting patterns as the number of pyrroles units in each conjugate increases, there are changes in two other features, namely, the apparent binding affinity and the width of the footprinted site. […] To simplify comparison between molecules, only the most significant footprint site (5′-^62[…]^70−3′/3′-[…]-5′) (SEQ ID NO:24) was selected for comparison. When the binding affinity of each molecule is compared to the relative number of pyrrole units it contains, a parabolic relationship is observed. By this method, GWL 80 (four pyrroles) appears to be the strongest binder with a DNase IC50 of around 30 nM. Conjugate GWL 79 (three pyrroles) and GWL 81 (five pyrroles) follow closely with affinities in the region of 30-100 nM. […] Finally, GWL 77 (one pyrrole) is a particularly weak footprinting molecule with an DNase IC50 of about, or in excess of, 10 μM.

[3] = tested on: K562 human chronic myeloid leukemia cells; test: In vitro cytotoxicity assay (MTT); type: cell-based; settings: K562, one hour exposure, MTT after four days
Protocol: In one aspect of this test, K562 human chronic myeloid leukemia cells are maintained in RPMI1640 medium supplemented with 10% fetal calf serum and 2 mM glutamine at 37° C. in a humidified atmosphere containing 5% CO2 and are incubated with a specified dose of drug for one hour at 37° C. in the dark. The incubation is terminated by centrifugation (5 min, 300 g) and the cells are washed once with drug-free medium. Following the appropriate drug treatment, the cells are transferred to 96-well microtiter plates (10^4 cells per well, 8 wells per sample). Plates are then kept in the dark at 37° C. in a humidified atmosphere containing 5% CO2. The assay is based on the ability of viable cells to reduce a yellow soluble tetrazolium salt, 3-(4,5-dimethylthiazol-2-yl)-2,5-diphenyl-2H-tetrazolium bromide (MTT, Aldrich-Sigma), to an insoluble purple formazan precipitate. Following incubation of the plates for four days (to allow control cells to increase in number by approximately 10 fold), 20 μL of MTT solution (5 mg/ml in phosphate-buffered saline) is added to each well and the plates further incubated for five hours. […] The optical density is then read at a wavelength of 550 nm on a […]™ (Titertek Labsystems, Finland) ELISA plate reader, and a dose-response curve is constructed. […]

[4] = differential cleavage analysis, compared with GWL 79

Compound	nuclear fluorescence [1]	footprint shape at position H (footnote 1) [2]	footprint shape at position J (footnote 2) [2]	footprint at position G ([2]; differential cleavage analysis)	apparent binding affinity relative to GWL 79 ([2]; C11 versus GWL 79)	binding at positions K and L [2, 4]	footprints at positions D, M and G [2, 4]	nuclear uptake [1]	time to cellular uptake / detection [1] [h]	IC50 ([2]; read-out: DNase IC50 (concentration of conjugate providing 50% inhibition of DNase I-mediated cleavage), site 5'-62CAATACACA70-3', estimated by eye from footprint images) [µM]	IC50 [3] [µM]
COC(=O)c1cc(NC(=O)c2cc(NC(=O)c3cc(NC(=O)c4cc(NC(=O)c5cc(NC(=O)CCCOc6cc7c(cc6OC)C(=O)N6CCC[C@H]6C=N7)cn5C)cn4C)cn3C)cn2C)cn1C [GWL 81, (11aS) methyl 4-({4-[(4-{[4-({4-[4-(7-methoxy-5-oxo-2,3,5,11a-tetrahydro-5H-pyrrolo[2,1-c][1,4]benzodiazepine-8-yloxy)-butyrylamino]-1-methyl-1H-pyrrole-2-carbonyl]-amino)-1-methyl-1H-pyrrole-2-carbonyl]-amino}-1-methyl-1H-pyrrole-2-carbonyl)-amino]-1-methyl-1H-pyrrole-2-carbonyl}-amino)-1-methyl-1H-pyrrole-2-carboxylate]	more diffuse throughout the cell	^127, 29, 31 show evidence of two closely juxtaposed footprints at this position	^227, 29, 31 show evidence of two closely juxtaposed footprints at this position	footprinted							
COC(=O)c1cc(NC(=O)c2cc(NC(=O)c3cc(NC(=O)c4cc(NC(=O)CCCOc5cc6c(cc5OC)C(=O)N5CCC[C@H]5C=N6)cn4C)cn3C)cn2C)cn1C [GWL 80, (11aS) methyl 4-[(4-{[4-({4-[4-(7-methoxy-5-oxo-2,3,5,11a-tetrahydro-5H-pyrrolo[2,1-c][1,4]benzodiazepine-8-yloxy)-butyrylamino]-1-methyl-1H-pyrrole-2-carbonyl]-amino)-1-methyl-1H-pyrrole-2-carbonyl]-amino}-1-methyl-1H-pyrrole-2-carbonyl)-amino]-1-methyl-1H-pyrrole-2-carboxylate]	more diffuse throughout the cell	^127, 29, 31 show evidence of two closely juxtaposed footprints at this position	^227, 29, 31 show evidence of two closely juxtaposed footprints at this position	footprinted							
COC(=O)c1cc(NC(=O)c2cc(NC(=O)c3cc(NC(=O)CCOc4cc5c(cc4OC)C(=O)N4CCC[C@H]4C=N5)cn3C)cn2C)cn1C [C11, reference compound]					30-100 fold	much weaker binding	lack of footprints				
COC(=O)c1cc(NC(=O)CCCOc2cc3c(cc2OC)C(=O)N2CCC[C@H]2C=N3)cn1C [GWL 77, (11aS) methyl 4-[4-(7-methoxy-5-oxo-2,3,5,11a-tetrahydro-5H-pyrrolo[2,1-c][1,4]benzodiazepine-8-yloxy)-butyrylamino]-1-methyl-1H-pyrrole-2-carboxylate]	strong nuclear fluorescence			footprinted				clear nuclear uptake	< 1	≥ 10	0.051
COC(=O)c1cc(NC(=O)c2cc(NC(=O)c3cc(NC(=O)c4cc(NC(=O)c5cc(NC(=O)c6cc(NC(=O)CCCOc7cc8c(cc7OC)C(=O)N7CCC[C@H]7C=N8)cn6C)cn5C)cn4C)cn3C)cn2C)cn1C [GWL 82, (11aS) methyl 4-{[4-({4-[(4-{[4-({4-[4-(7-methoxy-5-oxo-2,3,5,11a-tetrahydro-5H-pyrrolo[2,1-c][1,4]benzodiazepine-8-yloxy)-butyrylamino]-1-methyl-1H-pyrrole-2-carbonyl]-amino)-1-methyl-1H-pyrrole-2-carbonyl]-amino}-1-methyl-1H-pyrrole-2-carbonyl)-amino]-1-methyl-1H-pyrrole-2-carbonyl}-amino)-1-methyl-1H-pyrrole-2-carbonyl]-amino}-1-methyl-1H-pyrrole-2-carboxylate]	more diffuse throughout the cell	^127, 29, 31 show evidence of two closely juxtaposed footprints at this position	^227, 29, 31 show evidence of two closely juxtaposed footprints at this position								0.032
COC(=O)c1cc(NC(=O)c2cc(NC(=O)CCCOc3cc4c(cc3OC)C(=O)N3CCC[C@H]3C=N4)cn2C)cn1C [GWL 78, (11aS) methyl 4-({4-[4-(7-methoxy-5-oxo-2,3,5,11a-tetrahydro-5H-pyrrolo[2,1-c][1,4]benzodiazepine-8-yloxy)-butyrylamino]-1-methyl-1H-pyrrole-2-carbonyl}-amino)-1-methyl-1H-pyrrole-2-carboxylate]	strong nuclear fluorescence			footprinted				clear nuclear uptake	3		
COC(=O)c1cc(NC(=O)c2cc(NC(=O)c3cc(NC(=O)CCCOc4cc5c(cc4OC)C(=O)N4CCC[C@H]4C=N5)cn3C)cn2C)cn1C [GWL 79, (11aS) methyl 4-{[4-({4-[4-(7-methoxy-5-oxo-2,3,5,11a-tetrahydro-5H-pyrrolo[2,1-c][1,4]benzodiazepine-8-yloxy)-butyrylamino]-1-methyl-1H-pyrrole-2-carbonyl]-amino)-1-methyl-1H-pyrrole-2-carbonyl]-amino}-1-methyl-1H-pyrrole-2-carboxylate]	strong nuclear fluorescence							clear nuclear uptake	3		
